Experiments:
Assay type in all cases: cell-based, human
[1] = test system: PHHs in the hTCS and DhTCS; test: Nile Red staining of lipid accumulation in PHHs cultured in hTCS/DhTCS; details: normal PHHs in hTCS, lipogenic medium plus 0.5 μM OCA
Description: All-Human Triculture System. The hTCS was set up as previously described, including the medias, cell types, and expected functional performance. This protocol follows the guidelines of […] Health's ethics committee. All cells were isolated from donor tissue fully consented for research purposes by […] Health. PHHs have been designated as normal or diseased based on a histopathologic assessment of the tissue of origin by a board-certified pathologist, using the standard MASH CRN Scoring System. Formalin-fixed paraffin-embedded tissue sections were stained with H&E (FIG. 38) and Masson's Trichrome (FIG. 39) and assessed for steatosis, lobular inflammation, and hepatocyte ballooning to form the MAFLD Activity Score (NAS). Fibrosis was scored separately on a 4-point scale according to the classification as described by Kleiner et al (Kleiner et al., 2005). Tissues with a NAS of ≥4 were designated “Diseased” (n=4) while those with NAS of ≤3 were categorized as “Normal” (n=7) (Table 1). Glucose, Oleic Acid, and OCA Treatment. […] Nile Red Staining. Cells were washed with 1×DPBS (-Ca^++/-Mg^++) (Thermo Fisher) three times, and then Nile Red was added at a 1:500 dilution (Abcam). […] Nile Red staining was quantified by determining the densitometric fluorescence value (red channel) using Image J.

[2] = test system: PHHs cultured in the hTCS; test: Bile canaliculi formation, CDFDA staining; details: normal PHHs in hTCS, treated medium with addition of OCA (0.5 μM)
Protocol: Glucose, Oleic Acid, and OCA Treatment. […] 5-(and-6)-Carboxy-2′, 7′-Dichlorofluorescein Diacetate Staining. To visualize bile canaliculi formation, cells were rinsed twice with 1×DPBS (—Ca^++/—Mg^++) (Thermo Fisher). Fresh medium plus 5 μM 5-(and-6)-Carboxy-2′, 7′-Dichlorofluorescein Diacetate (CDFDA) (Thermo Fisher) were added to the cells and incubated for 20 minutes at 37° C. Cells were then washed twice with 1×DPBS (—Ca^++/—Mg^++), and DMEM (no phenol red) (Gibco) was added to the cells. Images were taken with an EVOS FL cell imaging system (Thermo Fisher) using a 10× objective.

[3] = test system: PHHs in the hTCS and DhTCS; test: Albumin secretion (ELISA) by PHHs in hTCS/DhTCS; details: normal PHHs in hTCS
Protocol: Albumin and Urea Assays. Supernatant was collected on the indicated days for measurement of albumin and urea. Three wells or greater were designated for each condition. Samples were run in duplicate. The concentration of albumin was determined using an ELISA assay (Abcam, Cambridge, MA) and performed according to the manufacturer's instructions. Urea was measured by a colorimetric kit (Stanbio, Boerne, TX) and performed according to the manufacturer's instructions. Bicinchoninic Acid Assay (BCA). The BCA assay was performed with supernatant collected on the designated day. Three wells or greater were designated for each condition. Samples were run in duplicate. Total protein concentration was determined using a kit (Thermo Fisher, Waltham, MA) and performed according to the manufacturer's instructions. Glucose, Oleic Acid, and OCA Treatment.

Question: For `CC[C@H]1[C@@H](O)[C@@H]2[C@H](CC[C@]3(C)[C@@H]([C@H](C)CCC(=O)O)CC[C@@H]23)[C@@]2(C)CC[C@@H](O)C[C@@H]12` [OCA, 6α-ethyl-chenodeoxycholic acid], which “Nile Red staining (lipid accumulation)” value ([1]; day 7) is on record?
Answer: 134.6%±13.6

Question: What about the “Nile Red staining (lipid accumulation)” value ([1]; day 14, significantly less than treated only, 20160 min) of the same compound?
Answer: 126.1%±8.5

Question: And the “bile canalicular network formation compared to untreated PHHs” value [2]?
Answer: appeared to increase bile canalicular network formation

Question: What about the “albumin, treated plus OCA compared to treated only” value ([3]; day 1, not significant) of the same compound?
Answer: An increase in albumin

Question: What about the albumin secretion ([3]; lipogenic medium plus 0.5 μM OCA, day 7) of the same compound?
Answer: 13,706±4,738 ng/mg total protein

Question: What about the albumin levels ([3]; lipogenic medium plus 0.5 μM OCA, day 14) of the same compound?
Answer: 2,219±400 ng/mg total protein

From patent publication US20260287577A1, “APPLICATIONS OF HEPATOCYTE CO-CULTURE SYSTEM” (LifeNet Health, priority 2023, published 2026)
